# Where “and” joins values, the source holds several entries; their conditions need not be identical. Identical values can stand only once.
# Legend:
# Assay type in all cases: in vivo
# [1] = test system: D4291 (WT Arabidopsis thaliana HST) containing tobacco plant; assay: Herbicide damage score after spraying, Example 3; details: for Average percentage damage: D4291, mutation n.a., averaged across transgenic population; for tolerance to herbicide: overexpression of Arabidopsis HST gene (SEQ ID NO.14) in tobacco
# Protocol: (§1) In order to determine if the newly discovered mutations detailed in Example 1 confer resistance to HST inhibiting compounds when expressed in plants, GM tobacco lines are to be produced and tested with HST inhibiting compounds. Transgenic tobacco plants expressing the Arabidopsis HST gene with and without mutations were tested.
# (§2) Populations of transgenic tobacco comprising 20-30 transgenic events per plant transformation constructs were generated as described in Example 2. These lines were clonally propagated and 1 clone per event was sprayed with 500, 100 or 50 g ai/ha of compound 1+0.2% Genapol X080 with a spray volume of 200 L/Ha (“g ai/ha” refers to grams of active compound per hectare).
# (§3) Herbicidal damage was visually assessed across the population and a herbicide damage score given at 7 and 14 days. A score of 0 indicates no visible damage or stunting whereas a score of 100 indicates a complete death of the plant. 20 transgenic events (i.e. individual transgenic plants) from each GM tobacco line were transplanted to soil 1 week prior to spraying with HST inhibiting compounds. WT tobacco was included as a control.
# (§4) The values in Tables 8 to 14 below refer to percentage of damage to the tested plants and show the damage scores for 20 populations of plants expressing either Arabidopsis WT HST gene (SEQ ID NO. 14), the Arabidopsis HST mutated gene according to SEQ ID NO. 27, the Arabidopsis HST mutated gene according to SEQ ID NO. 28, the Arabidopsis HST mutated gene according to SEQ ID NO. 29, the Arabidopsis HST mutated gene according to SEQ ID NO. 30, or the Arabidopsis HST mutated gene according to SEQ ID NO. 31. A control population of wild-type Samsun tobacco was also assessed for herbicide damage. […] However the mutated versions of the HST gene carrying the F276I, V277A, F280I or F280L mutations (SEQ ID NOs: 27, 28, 30 or 31) clearly display increased tolerance.
# [2] = test system: D4292 (F276I mutant Arabidopsis thaliana HST) containing tobacco plant; assay: Herbicide damage score after spraying, Example 3; details: averaged across transgenic population
# Protocol: as §1, §2, §3, §4
# [3] = test system: D4293 (V277A mutant Arabidopsis thaliana HST) containing tobacco plant; assay: Herbicide damage score after spraying, Example 3; details: averaged across transgenic population
# Protocol: as §1, §2, §3, §4
# [4] = test system: D4294 (T278N mutant Arabidopsis thaliana HST) containing tobacco plant; assay: Herbicide damage score after spraying, Example 3; details: for percentage of damage: D4294 AraHST V003 T278N, per GM event; for Average percentage damage: D4294 T278N, averaged across transgenic population
# Protocol: as §1, §2, §3, §4
# [5] = test system: D4295 (F280I mutant Arabidopsis thaliana HST) containing tobacco plant; assay: Herbicide damage score after spraying, Example 3; details: averaged across transgenic population
# Protocol: as §1, §2, §3, §4
# WT tobacco [6] = assay: Herbicide damage score after spraying, Example 3; details: WT tobacco control, per plant
# Protocol: as §1, §2, §3, §4
# [7] = test system: D4424 (WT Oryza sativa HST) containing tobacco plant; assay: Herbicide damage score after spraying, Example 4; details: for Average percentage damage: D4424, mutation n.a., averaged across transgenic population; for tolerance to herbicide: overexpression of Oryza sativa HST gene (SEQ ID NO.18) in tobacco
# Protocol: as §1, with “were” for “are to be”, “Oryza sativa” for “Arabidopsis”
# (§5) Populations of transgenic tobacco comprising 20-30 transgenic events per plant transformation constructs were generated as described in Example 2. These lines were clonally propagated and 1 clone per event was sprayed with 500, 100 or 50 g ai/ha of compound 1+0.2% (w/v) Genapol X080 with a spray volume of 200 L/Ha. (“g ai/ha” refers to grams of active compound per hectare).
# as §3, with “control. The mutated genes are identified in Table 16 below.” for “control.”
# (§6) The values in Tables 17 to 23 below refer to percentage of damage to the tested plants and show the damage scores for 20 populations of plants expressing either Oryza sativa WT HST gene (SEQ ID NO. 18), the Oryza sativa HST mutated gene according to SEQ ID NO. 47, the Oryza sativa HST mutated gene according to SEQ ID NO. 48, the Oryza sativa HST mutated gene according to SEQ ID NO. 49, the Oryza sativa HST mutated gene according to SEQ ID NO. 50, or the Oryza sativa HST mutated gene according to SEQ ID NO. 51. A control population of wild-type Samsun tobacco was also assessed for herbicide damage. […] However the mutated versions of the HST gene carrying the F262I, V263A, […], or F266L mutations (SEQ ID NOs: 47, 48, 50 or 51) clearly display increased tolerance.
# [8] = test system: D4425 (F262I mutant Oryza sativa HST) containing tobacco plant; assay: Herbicide damage score after spraying, Example 4; details: averaged across transgenic population
# Protocol: as §1, with “were” for “are to be”, “Oryza sativa” for “Arabidopsis”
# as §5
# as §3, with “control. The mutated genes are identified in Table 16 below.” for “control.”
# as §6
# [9] = test system: D4426 (V263A mutant Oryza sativa HST) containing tobacco plant; assay: Herbicide damage score after spraying, Example 4; details: for Average percentage damage: D4426 V263A, averaged across transgenic population
# Protocol: as §1, with “were” for “are to be”, “Oryza sativa” for “Arabidopsis”
# as §5
# as §3, with “control. The mutated genes are identified in Table 16 below.” for “control.”
# as §6
# [10] = test system: D4427 (T264N mutant Oryza sativa HST) containing tobacco plant; assay: Herbicide damage score after spraying, Example 4; details: for percentage of damage: D4427 OsHST V003 T264N, per event; for Average percentage damage: D4427 T264N, averaged across transgenic population
# Protocol: as §1, with “were” for “are to be”, “Oryza sativa” for “Arabidopsis”
# as §5
# as §3, with “control. The mutated genes are identified in Table 16 below.” for “control.”
# as §6
# [11] = test system: D4428 (F266I mutant Oryza sativa HST) containing tobacco plant; assay: Herbicide damage score after spraying, Example 4; details: averaged across transgenic population
# Protocol: as §1, with “were” for “are to be”, “Oryza sativa” for “Arabidopsis”
# as §5
# as §3, with “control. The mutated genes are identified in Table 16 below.” for “control.”
# as §6
# [12] = test system: D4429 (F266L mutant Oryza sativa HST) containing tobacco plant; assay: Herbicide damage score after spraying, Example 4; details: averaged across transgenic population
# Protocol: as §1, with “were” for “are to be”, “Oryza sativa” for “Arabidopsis”
# as §5
# as §3, with “control. The mutated genes are identified in Table 16 below.” for “control.”
# as §6
# WT tobacco [13] = assay: Herbicide damage score after spraying, Example 4; details: WT tobacco (Example 4), per plant
# Protocol: as §1, with “were” for “are to be”, “Oryza sativa” for “Arabidopsis”
# as §5
# as §3, with “control. The mutated genes are identified in Table 16 below.” for “control.”
# as §6
structure (smiles),measurement,setting,value
"Cc1nn(C)c(=O)c(-c2c(F)ccc(Cl)c2CCc2ccnc(F)c2)c1O [B5a, 4-[3-chloro-6-fluoro-2-[2-(2-fluoro-4-pyridyl)ethyl]phenyl]-5-hydroxy-2,6-dimethyl-pyridazin-3-one]",Average percentage damage,[1]; T2 B5a 100 gai/ha,89%
same,tolerance to herbicide,[1],does not increase tolerance
same,Average percentage damage,[2]; T2 B5a 100 gai/ha,45%
same,Average percentage damage,[3]; T2 B5a 100 gai/ha,28%
same,percentage of damage,[4]; T2 B5a 100 gai/ha,100% and 95% and 90% and 99%
same,Average percentage damage,[4]; T2 B5a 100 gai/ha,96%
same,Average percentage damage,[5]; T2 B5a 100 gai/ha,60%
same,percentage of damage,WT tobacco [6]; T2 B5a 100 gai/ha,95% and 90% and 85%
same,Average percentage damage,[7]; T2 B5a 100 gai/ha,93%
same,percentage of damage,"[7]; T2 B5a 100 gai/ha, D4424 pBin TMV OsHST, per event",90% and 96% and 95% and 97% and 98% and 85% and 80%
same,tolerance to herbicide,[7],does not increase tolerance
same,Average percentage damage,[8]; T2 B5a 100 gai/ha,69%
same,Average percentage damage,[9]; T2 B5a 100 gai/ha,22%
same,percentage of damage,[10]; T2 B5a 100 gai/ha,95% and 98% and 80% and 97% and 96% and 99% and 100%
same,Average percentage damage,[10]; T2 B5a 100 gai/ha,96%
same,Average percentage damage,[11]; T2 B5a 100 gai/ha,75%
same,Average percentage damage,[12]; T2 B5a 100 gai/ha,42%
same,percentage of damage,WT tobacco [13]; T2 B5a 100 gai/ha,90% and 95%
"Cc1nn(C)c(=O)c(-c2c(F)ccc(Cl)c2CCc2cnn(C)c2)c1O [B5b, 4-[3-chloro-6-fluoro-2-[2-(1-methylpyrazol-4-yl)ethyl]phenyl]-5-hydroxy-2,6-dimethyl-pyridazin-3-one]",Average percentage damage,[1]; T3 B5b 100 gai/ha,47%
same,tolerance to herbicide,[1],does not increase tolerance
same,Average percentage damage,[2]; T3 B5b 100 gai/ha,26%
same,Average percentage damage,[3]; T3 B5b 100 gai/ha,15%
same,percentage of damage,[4]; T3 B5b 100 gai/ha,100% and 75% and 95% and 98% and 99% and 90%
same,Average percentage damage,[4]; T3 B5b 100 gai/ha,95%
same,Average percentage damage,[5]; T3 B5b 100 gai/ha,29%
same,percentage of damage,WT tobacco [6]; T3 B5b 100 gai/ha,90% and 95%
same,Average percentage damage,[7]; T3 B5b 100 gai/ha,82%
same,tolerance to herbicide,[7],does not increase tolerance
same,Average percentage damage,[8]; T3 B5b 100 gai/ha,36%
same,percentage of damage,"[9]; T3 B5b 100 gai/ha, D4426 OsHST V002 V263A, per event",5% and 0% and 10% and 3%
same,Average percentage damage,[9]; T3 B5b 100 gai/ha,4%
same,percentage of damage,[10]; T3 B5b 100 gai/ha,96% and 98% and 95% and 97% and 99% and 90%
same,Average percentage damage,[10]; T3 B5b 100 gai/ha,96%
same,Average percentage damage,[11]; T3 B5b 100 gai/ha,34%
same,Average percentage damage,[12]; T3 B5b 100 gai/ha,18%
same,percentage of damage,WT tobacco [13]; T3 B5b 100 gai/ha,95% and 96% and 97% and 93% and 90%
"Cc1nc2ccc(CCc3c(Cl)ccc(F)c3-c3c(O)c(C)nn(C)c3=O)cc2o1 [B8a, 4-[3-chloro-6-fluoro-2-[2-(2-methyl-1,3-benzoxazol-6-yl)ethyl]phenyl]-5-hydroxy-2,6-dimethyl-pyridazin-3-one]",Average percentage damage,[1]; T4 B8a 50 gai/ha,64%
same,tolerance to herbicide,[1],does not increase tolerance
same,Average percentage damage,[2]; T4 B8a 50 gai/ha,33%
same,Average percentage damage,[3]; T4 B8a 50 gai/ha,16%
same,Average percentage damage,[4]; T4 B8a 50 gai/ha,90%
same,Average percentage damage,[5]; T4 B8a 50 gai/ha,30%
same,percentage of damage,WT tobacco [6]; T4 B8a 50 gai/ha,85% and 95% and 90%
same,Average percentage damage,[7]; T4 B8a 50 gai/ha,36%
same,tolerance to herbicide,[7],does not increase tolerance
same,Average percentage damage,[8]; T4 B8a 50 gai/ha,28%
same,Average percentage damage,[9]; T4 B8a 50 gai/ha,14%
same,Average percentage damage,[10]; T4 B8a 50 gai/ha,46%
same,Average percentage damage,[11]; T4 B8a 50 gai/ha,27%
same,Average percentage damage,[12]; T4 B8a 50 gai/ha,22%
same,percentage of damage,WT tobacco [13]; T4 B8a 50 gai/ha,95% and 96%

# Reference: patent US20250304990A1, “HERBICIDE RESISTANCE” (SYNGENTA CROP PROTECTION AG, priority 2021, published 2025)
